# According to ChEMBL document CHEMBL1909046, “DrugMatrix in vitro pharmacology data”:
# Biological target: T1, Adenosine receptor A1 (Homo sapiens, UniProt P30542);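 further: radioligand binding assay at the adenosine A1 receptor, with DPCPX serving as the labelled ligand; in other assays of this panel Not Active means under 50% inhibition at 10 µM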
# T1 sequence (P30542 whole entry): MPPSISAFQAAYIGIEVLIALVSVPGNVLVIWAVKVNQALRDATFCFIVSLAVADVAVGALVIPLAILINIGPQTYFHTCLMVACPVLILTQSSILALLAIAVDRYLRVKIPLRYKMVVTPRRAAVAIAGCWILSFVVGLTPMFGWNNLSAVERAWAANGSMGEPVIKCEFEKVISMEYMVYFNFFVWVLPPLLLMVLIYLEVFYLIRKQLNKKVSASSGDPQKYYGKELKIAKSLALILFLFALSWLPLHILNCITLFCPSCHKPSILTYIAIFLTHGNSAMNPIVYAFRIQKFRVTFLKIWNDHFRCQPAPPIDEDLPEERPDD
# Test: not given
# Type: cell membranes, CHO, Membrane
# Details: cho
row,SMILES,IC50
1,O=C1OCCN1/N=C/c1ccc([N+](=O)[O-])o1 [FURAZOLIDONE],Not Active
2,CCCc1cc(=O)[nH]c(=S)[nH]1 [PROPYLTHIOURACIL],Not Active
3,CC(=O)OCC(=O)[C@@]1(OC(C)=O)[C@@H](C)C[C@H]2[C@@H]3C[C@H](F)C4=CC(=O)C=C[C@]4(C)[C@@]3(F)[C@@H](O)C[C@@]21C [DIFLORASONE DIACETATE],Not Active

# Biological target: Melanocortin receptor 3 (Homo sapiens, UniProt P41968); further: in other assays of this panel Not Active means under 50% inhibition at 10 µM
# Sequence (P41968 whole entry): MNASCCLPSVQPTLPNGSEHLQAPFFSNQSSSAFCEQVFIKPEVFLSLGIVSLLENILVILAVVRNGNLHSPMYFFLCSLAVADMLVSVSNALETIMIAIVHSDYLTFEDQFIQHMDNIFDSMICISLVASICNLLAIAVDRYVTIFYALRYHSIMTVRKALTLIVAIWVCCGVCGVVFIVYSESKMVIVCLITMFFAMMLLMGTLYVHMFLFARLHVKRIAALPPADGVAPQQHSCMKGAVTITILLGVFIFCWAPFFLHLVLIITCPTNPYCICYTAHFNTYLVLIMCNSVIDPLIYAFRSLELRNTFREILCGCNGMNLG
# Test: not given
# Type: cell membranes, Membrane
# Details: hek293
row,SMILES,IC50
1,O=C1OCCN1/N=C/c1ccc([N+](=O)[O-])o1 [FURAZOLIDONE],Not Active
2,CCCc1cc(=O)[nH]c(=S)[nH]1 [PROPYLTHIOURACIL],Not Active
3,CC(=O)OCC(=O)[C@@]1(OC(C)=O)[C@@H](C)C[C@H]2[C@@H]3C[C@H](F)C4=CC(=O)C=C[C@]4(C)[C@@]3(F)[C@@H](O)C[C@@]21C [DIFLORASONE DIACETATE],Not Active

# Biological target: Mitogen-activated protein kinase 1 (Homo sapiens, UniProt P28482)
# Sequence (P28482 whole entry): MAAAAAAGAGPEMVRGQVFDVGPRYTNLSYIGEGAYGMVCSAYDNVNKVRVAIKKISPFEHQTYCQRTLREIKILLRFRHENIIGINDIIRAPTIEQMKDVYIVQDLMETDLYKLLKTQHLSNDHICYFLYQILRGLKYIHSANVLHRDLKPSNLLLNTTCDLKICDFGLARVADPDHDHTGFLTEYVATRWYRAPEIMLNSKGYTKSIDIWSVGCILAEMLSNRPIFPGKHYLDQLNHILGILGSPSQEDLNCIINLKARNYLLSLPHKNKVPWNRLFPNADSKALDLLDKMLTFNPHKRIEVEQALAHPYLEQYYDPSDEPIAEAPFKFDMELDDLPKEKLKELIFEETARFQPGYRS
# Test: DRUGMATRIX: Protein Serine/Threonine Kinase, ERK2 enzyme inhibition (substrate: Myelin Basic Protein)
# Parameters: species or system Escherichia coli
# Details: Not Active = under 50% inhibition at 10 µM
row,SMILES,IC50
1,O=C1OCCN1/N=C/c1ccc([N+](=O)[O-])o1 [FURAZOLIDONE],Not Active
2,CCCc1cc(=O)[nH]c(=S)[nH]1 [PROPYLTHIOURACIL],Not Active
3,CC(=O)OCC(=O)[C@@]1(OC(C)=O)[C@@H](C)C[C@H]2[C@@H]3C[C@H](F)C4=CC(=O)C=C[C@]4(C)[C@@]3(F)[C@@H](O)C[C@@]21C [DIFLORASONE DIACETATE],Not Active

# Biological target: D(3) dopamine receptor (Homo sapiens, UniProt P35462)
# Sequence (P35462 whole entry): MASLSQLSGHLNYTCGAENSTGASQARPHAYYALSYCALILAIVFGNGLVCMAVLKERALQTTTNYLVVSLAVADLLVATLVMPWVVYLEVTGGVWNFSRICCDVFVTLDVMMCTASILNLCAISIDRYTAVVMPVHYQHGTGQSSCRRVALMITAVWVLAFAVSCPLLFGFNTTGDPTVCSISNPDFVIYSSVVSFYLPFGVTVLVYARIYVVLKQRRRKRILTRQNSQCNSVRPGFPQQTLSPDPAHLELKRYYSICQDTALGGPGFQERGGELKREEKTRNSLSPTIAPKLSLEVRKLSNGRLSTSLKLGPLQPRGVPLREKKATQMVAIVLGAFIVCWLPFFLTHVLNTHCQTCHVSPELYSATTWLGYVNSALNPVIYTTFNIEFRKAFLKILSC
# Test: DRUGMATRIX: Dopamine D3 radioligand binding (ligand: [3H] Spiperone)
# Type: cell membranes, CHO, Membrane
# Details: cho
row,SMILES,IC50
1,O=C1OCCN1/N=C/c1ccc([N+](=O)[O-])o1 [FURAZOLIDONE],Not Active
2,CCCc1cc(=O)[nH]c(=S)[nH]1 [PROPYLTHIOURACIL],Not Active
3,CC(=O)OCC(=O)[C@@]1(OC(C)=O)[C@@H](C)C[C@H]2[C@@H]3C[C@H](F)C4=CC(=O)C=C[C@]4(C)[C@@]3(F)[C@@H](O)C[C@@]21C [DIFLORASONE DIACETATE],Not Active

# Tested on: not listed separately
# Test: DRUGMATRIX: Phosphodiesterase PDE4 enzyme inhibition (substrate: [3H]cAMP + cAMP)
# Details: u-937; Not Active = under 50% inhibition at 10 µM
SMILES,IC50,Ki
O=C1OCCN1/N=C/c1ccc([N+](=O)[O-])o1 [FURAZOLIDONE],Not Active,Not Active
CCCc1cc(=O)[nH]c(=S)[nH]1 [PROPYLTHIOURACIL],Not Active,Not Active
CC(=O)OCC(=O)[C@@]1(OC(C)=O)[C@@H](C)C[C@H]2[C@@H]3C[C@H](F)C4=CC(=O)C=C[C@]4(C)[C@@]3(F)[C@@H](O)C[C@@]21C [DIFLORASONE DIACETATE],Not Active,Not Active

# Tested on: not listed separately
# Test: DRUGMATRIX: Glutamate, NMDA, Phencyclidine radioligand binding (ligand: [3H] TCP)
# Type: cell membranes, Rattus norvegicus, Wistar, Cerebral cortex, Membrane
# Details: Not Active = under 50% inhibition at 10 µM
SMILES,IC50,Ki
O=C1OCCN1/N=C/c1ccc([N+](=O)[O-])o1 [FURAZOLIDONE],Not Active,Not Active
CCCc1cc(=O)[nH]c(=S)[nH]1 [PROPYLTHIOURACIL],Not Active,Not Active
CC(=O)OCC(=O)[C@@]1(OC(C)=O)[C@@H](C)C[C@H]2[C@@H]3C[C@H](F)C4=CC(=O)C=C[C@]4(C)[C@@]3(F)[C@@H](O)C[C@@]21C [DIFLORASONE DIACETATE],Not Active,Not Active

# Tested on: not listed separately
# Test: DRUGMATRIX: Calcium Channel Type L, Phenylalkylamine radioligand binding (ligand: [3H] (-)-Desmethoxyverapamil (D-888))
# Type: cell membranes, Rattus norvegicus, Wistar, Brain, Membrane
# Details: Not Active = under 50% inhibition at 10 µM
SMILES,IC50,Ki
O=C1OCCN1/N=C/c1ccc([N+](=O)[O-])o1 [FURAZOLIDONE],Not Active,Not Active
CCCc1cc(=O)[nH]c(=S)[nH]1 [PROPYLTHIOURACIL],Not Active,Not Active
CC(=O)OCC(=O)[C@@]1(OC(C)=O)[C@@H](C)C[C@H]2[C@@H]3C[C@H](F)C4=CC(=O)C=C[C@]4(C)[C@@]3(F)[C@@H](O)C[C@@]21C [DIFLORASONE DIACETATE],Not Active,Not Active

# Biological target: Platelet-activating factor receptor (Homo sapiens, UniProt P25105); further: in other assays of this panel Not Active means under 50% inhibition at 10 µM
# Sequence (P25105 whole entry): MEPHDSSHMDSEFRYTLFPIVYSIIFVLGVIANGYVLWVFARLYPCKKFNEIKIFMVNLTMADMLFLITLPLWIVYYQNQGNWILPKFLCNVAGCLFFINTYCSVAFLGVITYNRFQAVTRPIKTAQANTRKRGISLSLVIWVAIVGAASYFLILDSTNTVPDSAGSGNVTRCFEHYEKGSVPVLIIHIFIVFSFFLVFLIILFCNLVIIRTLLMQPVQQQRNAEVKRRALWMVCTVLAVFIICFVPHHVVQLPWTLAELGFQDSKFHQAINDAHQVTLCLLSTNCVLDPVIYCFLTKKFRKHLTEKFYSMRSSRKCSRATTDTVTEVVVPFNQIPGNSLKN
# Test: biochemical
# Type: tissue-based
# Details: platelet
row,SMILES,IC50
1,O=C1OCCN1/N=C/c1ccc([N+](=O)[O-])o1 [FURAZOLIDONE],Not Active
2,CCCc1cc(=O)[nH]c(=S)[nH]1 [PROPYLTHIOURACIL],Not Active
3,CC(=O)OCC(=O)[C@@]1(OC(C)=O)[C@@H](C)C[C@H]2[C@@H]3C[C@H](F)C4=CC(=O)C=C[C@]4(C)[C@@]3(F)[C@@H](O)C[C@@]21C [DIFLORASONE DIACETATE],Not Active

# Biological target: T2, Alpha-1D adrenergic receptor (Homo sapiens, UniProt P25100); further: in other assays of this panel Not Active means under 50% inhibition at 10 µM
# T2 sequence (P25100 whole entry): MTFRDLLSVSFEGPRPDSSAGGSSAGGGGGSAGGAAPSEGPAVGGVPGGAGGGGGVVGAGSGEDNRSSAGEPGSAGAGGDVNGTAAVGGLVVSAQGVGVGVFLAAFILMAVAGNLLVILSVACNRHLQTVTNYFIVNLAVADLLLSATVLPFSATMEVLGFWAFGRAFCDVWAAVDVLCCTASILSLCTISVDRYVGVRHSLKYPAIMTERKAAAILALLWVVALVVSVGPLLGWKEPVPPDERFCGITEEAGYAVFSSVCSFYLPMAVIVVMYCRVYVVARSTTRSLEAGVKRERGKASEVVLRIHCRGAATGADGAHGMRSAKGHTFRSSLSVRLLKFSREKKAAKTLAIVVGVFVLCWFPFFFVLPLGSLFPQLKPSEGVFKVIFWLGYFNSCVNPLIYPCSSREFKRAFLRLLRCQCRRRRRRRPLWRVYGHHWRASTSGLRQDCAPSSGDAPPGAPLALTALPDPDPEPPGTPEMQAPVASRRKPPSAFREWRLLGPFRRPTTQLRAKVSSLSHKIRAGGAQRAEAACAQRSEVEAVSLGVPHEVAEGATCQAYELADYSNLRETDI
# Test: not given
# Type: cell membranes, HEK293, Membrane
# Details: hek293
row,SMILES,IC50
1,O=C1OCCN1/N=C/c1ccc([N+](=O)[O-])o1 [FURAZOLIDONE],Not Active
2,CCCc1cc(=O)[nH]c(=S)[nH]1 [PROPYLTHIOURACIL],Not Active
3,CC(=O)OCC(=O)[C@@]1(OC(C)=O)[C@@H](C)C[C@H]2[C@@H]3C[C@H](F)C4=CC(=O)C=C[C@]4(C)[C@@]3(F)[C@@H](O)C[C@@]21C [DIFLORASONE DIACETATE],Not Active

# Biological target: Prostaglandin G/H synthase 1 (Homo sapiens, UniProt P23219)
# Sequence (P23219 whole entry): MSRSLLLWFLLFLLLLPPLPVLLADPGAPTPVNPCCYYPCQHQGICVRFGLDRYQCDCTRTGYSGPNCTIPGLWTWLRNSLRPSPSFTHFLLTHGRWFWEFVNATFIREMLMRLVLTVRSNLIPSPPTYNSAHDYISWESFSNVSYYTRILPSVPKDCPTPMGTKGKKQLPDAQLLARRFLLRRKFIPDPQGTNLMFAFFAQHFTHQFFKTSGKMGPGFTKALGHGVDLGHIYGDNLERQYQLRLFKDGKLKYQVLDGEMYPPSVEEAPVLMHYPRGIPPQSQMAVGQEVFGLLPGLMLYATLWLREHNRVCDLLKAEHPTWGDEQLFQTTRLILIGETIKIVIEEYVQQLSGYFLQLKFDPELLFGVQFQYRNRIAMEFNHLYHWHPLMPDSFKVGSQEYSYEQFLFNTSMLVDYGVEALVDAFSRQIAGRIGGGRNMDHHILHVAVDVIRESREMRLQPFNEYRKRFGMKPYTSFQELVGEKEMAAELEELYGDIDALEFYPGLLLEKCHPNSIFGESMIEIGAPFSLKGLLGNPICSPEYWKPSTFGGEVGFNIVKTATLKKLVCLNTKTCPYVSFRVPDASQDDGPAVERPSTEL
# Test: biochemical
# Type: tissue-based, Platelet
# Details: platelet
row,SMILES,IC50
1,O=C1OCCN1/N=C/c1ccc([N+](=O)[O-])o1 [FURAZOLIDONE],Not Active
2,CCCc1cc(=O)[nH]c(=S)[nH]1 [PROPYLTHIOURACIL],Not Active
3,CC(=O)OCC(=O)[C@@]1(OC(C)=O)[C@@H](C)C[C@H]2[C@@H]3C[C@H](F)C4=CC(=O)C=C[C@]4(C)[C@@]3(F)[C@@H](O)C[C@@]21C [DIFLORASONE DIACETATE],Not Active

# Tested on: not listed separately
# Test: DRUGMATRIX: Glutamate, NMDA, Agonism radioligand binding (ligand: [3H] CGP-39653)
# Type: cell membranes, Rattus norvegicus, Wistar, Cerebral cortex, Membrane
# Details: Not Active = under 50% inhibition at 10 µM
SMILES,IC50,Ki
O=C1OCCN1/N=C/c1ccc([N+](=O)[O-])o1 [FURAZOLIDONE],Not Active,Not Active
CCCc1cc(=O)[nH]c(=S)[nH]1 [PROPYLTHIOURACIL],Not Active,Not Active
CC(=O)OCC(=O)[C@@]1(OC(C)=O)[C@@H](C)C[C@H]2[C@@H]3C[C@H](F)C4=CC(=O)C=C[C@]4(C)[C@@]3(F)[C@@H](O)C[C@@]21C [DIFLORASONE DIACETATE],Not Active,Not Active

# Biological target: T3, Interstitial collagenase (Homo sapiens, UniProt P03956)
# T3 sequence (P03956 whole entry): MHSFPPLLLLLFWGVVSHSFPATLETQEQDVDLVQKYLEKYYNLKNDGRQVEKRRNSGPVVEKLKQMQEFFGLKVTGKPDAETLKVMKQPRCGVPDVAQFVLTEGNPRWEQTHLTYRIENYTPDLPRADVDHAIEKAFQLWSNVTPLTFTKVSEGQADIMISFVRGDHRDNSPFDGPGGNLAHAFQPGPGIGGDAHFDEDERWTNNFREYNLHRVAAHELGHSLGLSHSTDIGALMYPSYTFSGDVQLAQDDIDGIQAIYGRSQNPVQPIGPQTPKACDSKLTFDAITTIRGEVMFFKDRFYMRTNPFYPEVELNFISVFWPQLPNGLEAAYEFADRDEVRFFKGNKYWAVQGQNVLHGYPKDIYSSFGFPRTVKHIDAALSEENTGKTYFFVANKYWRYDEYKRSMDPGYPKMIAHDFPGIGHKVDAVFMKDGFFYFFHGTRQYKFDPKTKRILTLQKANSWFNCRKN
# Test: not given
# Type: tissue-based, Rheumatoid synovial fibroblasts
# Details: not given
row,SMILES,IC50
1,O=C1OCCN1/N=C/c1ccc([N+](=O)[O-])o1 [FURAZOLIDONE],Not Active
2,CCCc1cc(=O)[nH]c(=S)[nH]1 [PROPYLTHIOURACIL],Not Active
3,CC(=O)OCC(=O)[C@@]1(OC(C)=O)[C@@H](C)C[C@H]2[C@@H]3C[C@H](F)C4=CC(=O)C=C[C@]4(C)[C@@]3(F)[C@@H](O)C[C@@]21C [DIFLORASONE DIACETATE],Not Active

# Biological target: T4, 3-hydroxy-3-methylglutaryl-coenzyme A reductase (Homo sapiens, UniProt P04035)
# T4 sequence (P04035 whole entry): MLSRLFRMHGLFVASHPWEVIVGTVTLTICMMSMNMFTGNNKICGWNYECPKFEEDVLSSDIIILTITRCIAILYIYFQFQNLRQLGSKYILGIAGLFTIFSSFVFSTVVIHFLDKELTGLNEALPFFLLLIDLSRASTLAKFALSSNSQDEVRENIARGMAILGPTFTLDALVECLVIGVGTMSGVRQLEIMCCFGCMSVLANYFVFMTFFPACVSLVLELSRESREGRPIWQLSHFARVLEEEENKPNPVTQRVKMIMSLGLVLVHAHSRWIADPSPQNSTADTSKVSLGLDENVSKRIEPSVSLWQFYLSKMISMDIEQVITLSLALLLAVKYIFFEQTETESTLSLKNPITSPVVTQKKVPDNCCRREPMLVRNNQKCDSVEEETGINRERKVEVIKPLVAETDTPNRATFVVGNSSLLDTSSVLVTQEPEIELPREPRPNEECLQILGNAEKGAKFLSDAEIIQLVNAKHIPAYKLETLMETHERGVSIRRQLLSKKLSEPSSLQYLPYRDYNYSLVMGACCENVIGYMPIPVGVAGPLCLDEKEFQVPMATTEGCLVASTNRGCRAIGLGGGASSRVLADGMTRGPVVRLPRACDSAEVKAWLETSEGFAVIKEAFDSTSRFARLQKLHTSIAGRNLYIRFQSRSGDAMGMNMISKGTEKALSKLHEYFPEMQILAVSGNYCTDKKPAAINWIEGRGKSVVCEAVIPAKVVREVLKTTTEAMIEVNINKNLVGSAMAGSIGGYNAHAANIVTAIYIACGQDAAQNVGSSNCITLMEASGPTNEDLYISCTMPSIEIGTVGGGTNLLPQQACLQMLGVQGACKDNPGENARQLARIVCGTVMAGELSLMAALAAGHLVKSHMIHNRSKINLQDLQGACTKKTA
# Test: not given
# Parameters: species or system Escherichia coli
# Details: not given
row,SMILES,IC50
1,O=C1OCCN1/N=C/c1ccc([N+](=O)[O-])o1 [FURAZOLIDONE],Not Active
2,CCCc1cc(=O)[nH]c(=S)[nH]1 [PROPYLTHIOURACIL],Not Active
3,CC(=O)OCC(=O)[C@@]1(OC(C)=O)[C@@H](C)C[C@H]2[C@@H]3C[C@H](F)C4=CC(=O)C=C[C@]4(C)[C@@]3(F)[C@@H](O)C[C@@]21C [DIFLORASONE DIACETATE],Not Active
